The results in this text go back to ChEMBL document CHEMBL3352657 (J Med Chem, 2014).

Active and inactive are the calls of the source. No cut-off for these calls is given here. A value given as a limit tells only on which side of the number the result lay.

For assay [1], the target named is T1, Neurotensin receptor type 2 (Rattus norvegicus, UniProt Q63384).
T1 sequence (Q63384 whole entry): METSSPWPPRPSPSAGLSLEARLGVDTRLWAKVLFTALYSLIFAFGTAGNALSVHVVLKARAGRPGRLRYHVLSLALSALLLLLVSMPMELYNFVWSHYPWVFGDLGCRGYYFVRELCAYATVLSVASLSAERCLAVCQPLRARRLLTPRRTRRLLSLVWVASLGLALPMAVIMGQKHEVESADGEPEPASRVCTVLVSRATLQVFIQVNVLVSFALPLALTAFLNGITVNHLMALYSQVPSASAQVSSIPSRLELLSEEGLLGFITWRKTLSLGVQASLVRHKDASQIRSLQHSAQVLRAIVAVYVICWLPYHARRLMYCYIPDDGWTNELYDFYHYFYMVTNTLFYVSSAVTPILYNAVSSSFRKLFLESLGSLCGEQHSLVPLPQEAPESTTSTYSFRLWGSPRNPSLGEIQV
Nature of the assay: Antagonist activity at rat NTS2 receptor expressed in CHO-K1 cells assessed as inhibition of SR142948a-induced calcium mobilization by FLIPR assay. It counts as functional, cell-based. A general note: Calcium flux is commonly read through the fluorescence of an indicator in the cells.

Assay [2] concerns the target T1, Neurotensin receptor type 2. Nature of the assay: Agonist activity at rat NTS2 receptor expressed in CHO-K1 cells assessed as calcium mobilization by FLIPR assay. It counts as functional, cell-based.
Assay [3] shares this target. Nature of the assay: Displacement of [125I]neurotensin from rat NTS2 receptor expressed in CHO-K1 cells by competitive binding assay. It counts as cell-based.
In assay [4] the target is Neurotensin receptor type 1 (Rattus norvegicus, UniProt P20789). Nature of the assay: Displacement of [125I]neurotensin from rat NTS1 receptor expressed in CHO-K1 cells by competitive binding assay. It counts as cell-based.
Chain of Neurotensin receptor type 1 (P20789 whole entry): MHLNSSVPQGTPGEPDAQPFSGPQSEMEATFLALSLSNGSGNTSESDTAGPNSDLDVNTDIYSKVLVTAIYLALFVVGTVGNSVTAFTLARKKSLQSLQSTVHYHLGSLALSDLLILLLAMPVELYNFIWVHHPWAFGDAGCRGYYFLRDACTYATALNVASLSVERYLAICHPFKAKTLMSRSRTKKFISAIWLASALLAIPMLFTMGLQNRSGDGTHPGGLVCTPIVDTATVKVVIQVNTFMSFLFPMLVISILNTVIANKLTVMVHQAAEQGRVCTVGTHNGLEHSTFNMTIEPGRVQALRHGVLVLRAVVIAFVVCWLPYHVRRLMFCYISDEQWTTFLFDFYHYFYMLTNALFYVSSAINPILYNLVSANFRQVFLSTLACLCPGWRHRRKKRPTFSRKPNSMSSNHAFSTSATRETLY
The target in assay [5] is Neurotensin receptor type 1 (Rattus norvegicus) (UniProt P20789). Put plainly: Antagonist activity at rat NTS1 receptor expressed in CHO-K1 cells assessed as inhibition of […]-induced calcium mobilization by FLIPR assay. It counts as functional, cell-based.
Chain of Neurotensin receptor type 1 (Rattus norvegicus) (P20789 whole entry): as above
The target is the same in assay [6]. Put plainly: Agonist activity at rat NTS1 receptor expressed in CHO-K1 cells assessed as calcium mobilization by FLIPR assay. It counts as functional, cell-based.

As usually defined, the IC50 is the concentration that inhibits the measured activity by half. By EC50 is commonly meant the concentration needed to bring the measured effect to its halfway point. A word on the Ki: it is the dissociation constant of the complex between target and ligand, obtained from inhibition or displacement. For `Cc1ccc(S(=O)(=O)Nc2ccc3c(c2)c(C(=O)C(F)(F)F)cn3CC(=O)N[C@@H](CC(C)C)C(=O)O)cc1`, the half-maximal inhibitory concentration (IC50) in assay [1] is 38 nM. Further, the EC50 result in assay [2] (cho-k1) is “Not Active”. Moreover, the results for the inhibitory constant (Ki) in assay [3] and in assay [4] were 202 nM and greater than 30000 nM, respectively.

Turning to `Cc1ccc(S(=O)(=O)Nc2ccc3c(ccn3CC(=O)N[C@@H](CC(C)C)C(=O)O)c2)cc1`, the concentration for half-maximal inhibition (IC50) in assay [1] turned out to be 3320 nM. Besides, the concentration for a half-maximal effect (EC50) entry in assay [2] (cho-k1) is recorded as “Not Active”. In addition, the Ki in assay [3] is 1500 nM; in assay [4], greater than 30000 nM. In assay [5], the inhibition entry is “inactive”. The result in assay [6] was inactive.

Take `COc1cccc(OC)c1-c1cc(C(=O)NC2(C(=O)O)C3CC4CC(C3)CC2C4)nn1-c1ccc(C(=O)N(C)CCCN(C)C)cc1C(C)C` (stereo not drawn): in assay [2] (read-out: EC50), the 50% effective concentration (EC50) stood at 22 nM. Further, the results for the inhibition constant (Ki) in assay [3] and in assay [4] were 5.8 nM and 1.4 nM, respectively.
